Experimental data reported in ChEMBL document CHEMBL4422611, “A review on diverse heterocyclic compounds as the privileged scaffolds in antimalarial drug discovery” (Eur J Med Chem, 2018).
In brackets after ≈: the same amount, converted by molar mass.

What follows are compounds tested on Plasmodium falciparum (assay: Antimalarial activity against synchronized ring stage of chloroquine-sensitive Plasmodium falciparum 3D7 infected in human RBC assessed as parasite death at 5 ug/ml after 40 hrs by Giemsa staining based microscopic analysis relative to control).
Format: functional

| SMILES | Activity |
| --- | --- |
| Clc1ccc2c(NCCN3CCN(c4nc(N5CCOCC5)nc(N5CCOCC5)n4)CC3)ccnc2c1 | 6% |

Each compound was assayed on Plasmodium falciparum (assay: Antimalarial activity against synchronized ring stage of chloroquine-resistant Plasmodium falciparum RKL2 infected in human RBC assessed as parasite death at 5 ug/ml after 40 hrs by Giemsa staining based microscopic analysis relative to control).
Format: functional

| SMILES | Activity |
| --- | --- |
| Clc1ccc2c(NCCN3CCN(c4nc(N5CCOCC5)nc(N5CCOCC5)n4)CC3)ccnc2c1 | 8% |

These compounds were tested on Plasmodium falciparum (assay: Antimalarial activity against Plasmodium falciparum infected in human RBC after 72 hrs by Giemsa staining based assay).
Format: functional, organism-based

| IC50 | SMILES |
| --- | --- |
| 0.5 µg/mL (≈ 1.28 µM) | COc1ccc2nc(Cl)c(/C=C3\C=C(c4ccc(C)cc4C)OC3=O)cc2c1 |

Each compound was assayed on Plasmodium falciparum (assay: Antimalarial activity against synchronized ring stage of Plasmodium falciparum infected in human RBC measured after 48 hrs).
Format: functional, organism-based

| SMILES | IC50 |
| --- | --- |
| CCOC(=O)C1=C(N)OC2=C(C(=O)CC(C)(C)C2)C1c1c(C)nn(-c2ccccc2)c1-n1ccnc1 (stereo not drawn) | 0.067 µg/mL |
| Cc1n[nH]c2c1C(C1CCCCC1)c1c(n(C)c(=O)n(C)c1=O)N2 (stereo not drawn) | 0.033 µg/mL |
| Cc1nn(-c2ccccc2)c2c1C(c1cccs1)c1c(n(C)c(=O)n(C)c1=O)N2 (stereo not drawn) | 0.033 µg/mL |
| Cc1nn(-c2ccccc2)c(-n2ccnc2)c1C1C(C#N)=C(N)Oc2c1c(=O)oc1ccccc21 (stereo not drawn) | 0.42 µg/mL |
| Cc1nn(-c2ccccc2)c(Oc2ccccc2F)c1-c1nnc(-c2ccc(Br)cc2)o1 | 506 nM |

The remaining lines, values ahead:

| IC50 | SMILES |
| --- | --- |
| 0.036 µg/mL | Cc1nn(-c2ccccc2)c(-n2ccnc2)c1C1CC(c2ccc(O)cc2)=NN1 (stereo not drawn) |
| 0.049 µg/mL | CCOC(=O)C1=C(N)Oc2c(c(=O)n(C)c(=O)n2C)C1c1c(C)nn(-c2ccccc2)c1-n1ccnc1 (stereo not drawn) |
| 0.034 µg/mL | Cc1nn(-c2ccccc2)c2c1C(c1c(C)nn(-c3ccccc3)c1-n1ccnc1)C(C#N)=C(N)O2 (stereo not drawn) |
| 0.061 µg/mL | CCOC(=O)C1=C(N)Oc2c(ccc(O)c2C)C1c1c(C)nn(-c2ccccc2)c1-n1ccnc1 (stereo not drawn) |
| 0.012 µg/mL | Cc1nn(-c2ccccc2)c(-n2ccnc2)c1C1CC(c2ccc(Br)cc2)=NN1 (stereo not drawn) |
| 0.57 µg/mL | Cc1n[nH]c2c1C(c1c(C)nn(-c3ccccc3)c1-n1ccnc1)C(C#N)=C(N)O2 (stereo not drawn) |
| 0.32 µg/mL | Cc1nn(-c2ccccc2)c(-n2ccnc2)c1C1C(C#N)=C(N)Oc2ccc3ccccc3c21 (stereo not drawn) |
| 0.036 µg/mL | Cc1nn(-c2ccccc2)c(-n2ccnc2)c1C1CC(c2ccc(Br)cc2)=NO1 (stereo not drawn) |
| 0.54 µg/mL | Cc1nn(-c2ccccc2)c(-n2ccnc2)c1C1C(C#N)=C(N)Oc2c1ccc1ccccc21 (stereo not drawn) |

What follows are compounds tested on Plasmodium falciparum (assay: Antimalarial activity against Plasmodium falciparum).
Format: functional, organism-based

| IC50 | SMILES |
| --- | --- |
| 0.042 µg/mL (≈ 0.0642 µM) | COc1ccc(NN2C(N)=C(C#N)C(c3c(C)nn(-c4ccccc4)c3Oc3cccc(C(F)(F)F)c3)C3=C2CC(C)(C)CC3=O)cc1 (stereo not drawn) |
